# Values quoted from earlier work as cited in patent US8067011B2, “Compositions and methods for treating B-cell malignancies” (Chimeros, Inc., priority 2006, dated 2011).
# Columns and labels:
# [1] = system: relapsed or refractory, low-grade or follicular, CD20-positive, B-cell non-Hodgkin's lymphoma; settings: low-grade or follicular NHL
# [2] = system: diffuse large B-cell, CD20-positive, non-Hodgkin's lymphoma; settings: added to CHOP or other anthracycline-based chemotherapy, first-line DLBCL
substance,measurement,setting,value
"Rituxan: naked antibody that specifically binds to CD20, used for B cell-derived lymphomas and leukemias","median duration of response, defined as progression free survival",[1],about 1 year
same,response rate,[1],about 50%
same,extension of progression free survival over chemotherapy alone,[2],about 1.5 years
